Data on eight compounds can be found in patent US20190308962A1, “FXR (NR1H4) Modulating Compounds” (GILEAD SCIENCES, INC., priority 2016, published 2019).

Series [1] concerns the target T1, human FXR alpha ligand binding domain (Homo sapiens, UniProt Q96RI1).
T1 construct: made in house; host or cells: E. coli BL21(DE3), vector pDEST15
T1 sequence (Q96RI1 187-472 isoform Q96RI1-2): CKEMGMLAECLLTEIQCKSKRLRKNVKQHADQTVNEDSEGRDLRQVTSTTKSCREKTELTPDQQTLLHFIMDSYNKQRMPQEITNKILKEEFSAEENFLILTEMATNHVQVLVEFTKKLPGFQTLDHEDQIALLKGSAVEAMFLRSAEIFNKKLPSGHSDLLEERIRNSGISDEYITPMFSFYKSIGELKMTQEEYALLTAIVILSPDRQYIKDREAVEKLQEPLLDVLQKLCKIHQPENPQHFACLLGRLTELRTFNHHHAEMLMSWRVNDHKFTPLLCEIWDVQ
Put plainly: FRET activity assay (ligand mediated cofactor peptide interaction, LANCE). In kind it is biochemical. The conditions noted are these: GST-FXR-LBD / biotinylated SRC-1 peptide (676-700). As to the method: Determination of a ligand mediated cofactor peptide interaction to quantify ligand binding to the nuclear receptor FXR was performed as follows.
Preparation of human FXR alpha ligand binding domain: The human FXRalpha LBD was expressed in E. coli strain BL21(DE3) as an N-terminally GST tagged fusion protein. The DNA encoding the FXR ligand binding domain was cloned into vector pDEST15 (Invitrogen). Expression was under control of an IPTG inducible T7 promoter. The amino acid boundaries of the ligand binding domain were amino acids 187-472 of Database entry NM_005123 (RefSeq). Expression and purification of the FXR-LBD: An overnight preculture of a transformed E. coli strain was diluted 1:20 in LB-Ampicillin medium and grown at 30° C. to an optical density of OD600=0.4-0.6. Gene expression was then induced by addition of 0.5 mM IPTG. Cells were incubated an additional 6 h at 30° C., 180 rpm. Cells were collected by centrifugation (7000×g, 7 min, rt). Per liter of original cell culture, cells were resuspended in 10 mL lysis buffer (50 mM Glucose, 50 mM Tris pH 7.9, 1 mM EDTA and 4 mg/mL lysozyme) and left on ice for 30 min. Cells were then subjected to sonication and cell debris removed via centrifugation (22000×g, 30 min, 4° C.). Per 10 mL of supernatant 0.5 mL prewashed Glutathione 4B sepharose slurry (Qiagen) was added and the suspension kept slowly rotating for 1 h at 4° C. Glutathione 4B sepharose beads were pelleted by centrifugation (2000×g, 15 sec, 4° C.) and washed twice in wash buffer (25 mM Tris, 50 mM KCl, 4 mM MgCl2 and 1M NaCl). The pellet was resuspended in 3 mL elution buffer per liter of original culture (elution buffer: 20 mM Tris, 60 mM KCl, 5 mM MgCl2 and 80 mM glutathione added immediately prior to use as powder). The suspension was left rotating for 15 min at 4° C., the beads pelleted and eluted again with half the volume of elution buffer than the first time. The eluates were pooled and dialysed overnight in 20 mM Hepes buffer (pH 7.5) containing 60 mM KCl, 5 mM MgCl2 as well as 1 mM dithiothreitol and 10% (v/v) glycerol. The protein was analysed by SDS-Page.
The method measures the ability of putative ligands to modulate the interaction between the purified bacterial expressed FXR ligand binding domain (LBD) and a synthetic biotinylated peptide based on residues 676-700 of SRC-1 (LCD2, 676-700). The sequence of the peptide used was B-[…]-COOH (SEQ ID NO: 1) where the N-terminus was biotinylated (B). The ligand binding domain (LBD) of FXR was expressed as fusion protein with GST in BL-21 cells using the vector pDEST15. Cells were lysed by sonication, and the fusion proteins purified over glutathione sepharose (Pharmacia) according to the manufacturers instructions. For screening of compounds for their influence on the FXR-peptide interaction, the Perkin Elmer LANCE technology was applied. This method relies on the binding dependent energy transfer from a donor to an acceptor fluorophor attached to the binding partner of interest. For ease of handling and reduction of background from compound fluorescence LANCE technology makes use of generic fluorophore labels and time resolved detection Assays were done in a final volume of 25 μL in a 384 well plate, in a Tris-based buffer (20 mM Tris-HCl pH 7.5; 60 mM KCl, 5 mM MgCl2; 35 ng/μL BSA), containing 20-60 ng/well recombinantly expressed FXR-LBD fused to GST, 200-600 nM N-terminally biotinylated peptide, representing SRC1 aminoacids 676-700, 200 ng/well Streptavidin-xlAPC conjugate (Prozyme) and 6-10 ng/well Eu W1024-antiGST (Perkin Elmer). DMSO content of the samples was kept at 1%. After generation of the assay mix and diluting the potentially FXR modulating ligands, the assay was equilibrated for 1 h in the dark at rt in FIA-plates black 384 well (Greiner). The LANCE signal was detected by a Perkin Elmer VICTOR2V™ Multilabel Counter. The results were visualized by plotting the ratio between the emitted light at 665 and 615 nm. […]

Series [2] has as its target T2, FXR ligand binding domain (Homo sapiens, UniProt Q96RI1).
T2 construct: expressed in transfected cells; host or cells: HEK293 (DSMZ), transient transfection with pCMV-BD-FXR-LBD, pFR-Luc and pRL-CMV
T2 sequence (Q96RI1 187-472 isoform Q96RI1-2): T1 sequence (Q96RI1 187-472 isoform Q96RI1-2)
Put plainly: Mammalian one hybrid (M1H) Gal4 reporter gene assay in HEK293 cells. Format: cell-based. The conditions noted are these: Gal4-FXR-LBD, luciferase reporter, 16 h. The method, then: Determination of a ligand mediated Gal4 promoter driven transactivation to quantify ligand binding mediated activation of FXR was performed as follows.
The cDNA part encoding the FXR ligand binding domain was cloned into vector pCMV-BD (Stratagene) as a fusion to the yeast GAL4 DNA binding domain under the control of the CMV promoter. The amino acid boundaries of the ligand binding domain were amino acids 187-472 of Database entry NM_005123 (RefSeq). The plasmid pFR-Luc (Stratagene) was used as the reporter plasmid, containing a synthetic promoter with five tandem repeats of the yeast GAL4 binding sites, driving the expression of the Photinus pyralis (American firefly) luciferase gene as the reporter gene. In order to improve experimental accuracy the plasmid pRL-CMV (Promega) was cotransfected. pRL-CMV contains the constitutive CMV promoter, controlling the expression of the Renilla reniformis luciferase. All Gal4 reporter gene assays were done in HEK293 cells (obtained from DSMZ, Braunschweig, Germany) grown in MEM with L-Glutamine and Earle's BSS supplemented with 10% fetal bovine serum, 0.1 mM nonessential amino acids, 1 mM sodium pyruvate, and 100 units Penicilin/[…] per mL at 37° C. in 5% CO2. Medium and supplements were obtained from Invitrogen. For the assay, […] cells were plated per well in 96 well plates in 100 μL per well MEM without Phenol Red and L-Glutamine and with Earle's BSS supplemented with 10% charcoal/dextran treated FBS (HyClone, South Logan, Utah), 0.1 mM nonessential amino acids, 2 mM glutamine, 1 mM sodium pyruvate, and 100 units Penicilin/[…] per mL, incubated at 37° C. in 5% CO2. The following day the cells were >90% confluence. Medium was removed and cells were transiently transfected using 20 μL per well of an OptiMEM-polyethylene-imine-based transfection-reagent (OptiMEM, Invitrogen; Polyethyleneimine, Aldrich Cat No. 40, 827-7) including the three plasmids described above. MEM with the same composition as used for plating cells was added 2-4 h after addition of transfection mixture. Then compound stocks, prediluted in MEM were added (final vehicle concentration not exceeding 0.1%). Cells were incubated for additional 16 h before firefly and renilla luciferase activities were measured sequentially in the same cell extract using a Dual-Light-Luciferase-Assay system (Dyer et al., Anal. Biochem. 2000, 282, 158-161). All experiments were done in triplicates.
Background: In a reporter assay the amount or activity of a reporter protein is the signal.

Series [3] can be described thus: Plasma drug exposure in cynomolgus monkey after oral dosing. Format: in vivo. The source says: (§1) Each dosing group consisted of three male Cynomolgus monkeys.
The next series has as its system FGF19. Description: In vivo pharmacodynamics in cynomolgus monkey: plasma FGF19 (ELISA). The settings on record: oral.
Description: as §1

Molecules are shown by their SMILES.

Turning to `O=C(O)c1ccnc(N2CC(O)(c3ccc(OCc4c(-c5ccc(F)cc5F)noc4C4CC4)cc3Cl)C2)c1` [Example 1, 2-(3-(2-chloro-4-((5-cyclopropyl-3-(2,4-difluorophenyl)isoxazol-4-yl)methoxy)phenyl)-3-hydroxyazetidin-1-yl)isonicotinic Acid], the EC50 in series [1] worked out at 263 nM; in series [2] it was 3000 nM.
For `O=C(O)c1ccnc(N2CC(O)(c3ccc(OCc4c(-c5c(Cl)cc(F)cc5Cl)noc4C4CC4)cc3Cl)C2)c1` [Example 2, 2-(3-(2-chloro-4-((5-cyclopropyl-3-(2,6-dichloro-4-fluorophenyl)isoxazol-4-yl)methoxy)phenyl)-3-hydroxyazetidin-1-yl)isonicotinic Acid], the EC50 in series [1] was 25 nM; in series [2] it was 831 nM.
With `O=C(O)c1cnc(N2CC(O)(c3ccc(OCc4c(-c5c(Cl)cc(F)cc5Cl)noc4C4CC4)cc3Cl)C2)c(F)c1` [Example 3, 6-(3-(2-chloro-4-((5-cyclopropyl-3-(2,6-dichloro-4-fluorophenyl)isoxazol-4-yl)methoxy)phenyl)-3-hydroxyazetidin-1-yl)-5-fluoronicotinic Acid], the “Maximal AUC, compared between the two compounds” value in series [3] (300 mg/kg) is “comparable”. In addition, the “Plasma exposure with increasing doses” value in series [3] (3 to 300 mg/kg) is recorded as “Dose-dependent increases in plasma exposure”. The EC50 was found to be 7.4 nM in series [1] and 3.8 nM in series [2]. The “Plasma FGF19 response to increasing doses” value with FGF19 (3 to 300 mg/kg) is “dose-dependently increased plasma FGF19”. Further, in the series with FGF19 (highest dose (300 mg/kg)), the “Plasma FGF19 Cmax” value turned out to be 16000 pg/mL.
In the case of `Cc1onc(-c2c(Cl)cc(F)cc2Cl)c1COc1ccc(C2(O)CN(c3ncc(C(=O)O)cc3F)C2)c(Cl)c1` [Example 4, 6-(3-(2-chloro-4-((3-(2,6-dichloro-4-fluorophenyl)-5-methylisoxazol-4-yl)methoxy)phenyl)-3-hydroxyazetidin-1-yl)-5-fluoronicotinic Acid], the EC50 in series [1] is 35 nM; in series [2], 176 nM.
With `O=C(O)c1cnc(N2CC(O)(c3ccc(OCc4c(C5CC5)cnn4-c4c(Cl)cc(F)cc4Cl)cc3Cl)C2)c(F)c1` [Example 5, 6-(3-(2-chloro-4-((4-cyclopropyl-1-(2,6-dichloro-4-fluorophenyl)-1H-pyrazol-5-yl)methoxy)phenyl)-3-hydroxyazetidin-1-yl)-5-fluoronicotinic Acid], the EC50 in series [1] amounted to 18 nM; in series [2] it was 8.6 nM.
Regarding `COc1ncc(C(=O)O)cc1[C@H]1C[C@](O)(c2ccc(OCc3c(-c4c(Cl)cc(F)cc4Cl)noc3C3CC3)cc2Cl)C1` [Example 6, 5-((1S,3S)-3-(2-chloro-4-((5-cyclopropyl-3-(2,6-dichloro-4-fluorophenyl)isoxazol-4-yl)methoxy)phenyl)-3-hydroxycyclobutyl)-6-methoxynicotinic Acid], the EC50 was determined as 49 nM in series [1] and 353 nM in series [2].
As for `O=C(NCCS(=O)(=O)O)c1cnc(N2CC(O)(c3ccc(OCc4c(-c5c(Cl)cc(F)cc5Cl)noc4C4CC4)cc3Cl)C2)c(F)c1` [Example 7, 2-(6-(3-(2-chloro-4-((5-cyclopropyl-3-(2,6-dichloro-4-fluorophenyl)isoxazol-4-yl)methoxy)phenyl)-3-hydroxyazetidin-1-yl)-5-fluoronicotinamido)ethane-1-sulfonic Acid], the EC50 in series [1] turned out to be 6.9 nM; in series [2] it was 1700 nM.
On the same counts, the results for `O=C(O)CNC(=O)c1cnc(N2CC(O)(c3ccc(OCc4c(-c5c(Cl)cc(F)cc5Cl)noc4C4CC4)cc3Cl)C2)c(F)c1` [Example 8, (6-(3-(2-chloro-4-((5-cyclopropyl-3-(2,6-dichloro-4-fluorophenyl)isoxazol-4-yl)methoxy)phenyl)-3-hydroxyazetidin-1-yl)-5-fluoronicotinoyl)glycine] are 8.1 nM and 1260 nM.

The term EC50 denotes the concentration at which the effect is half-maximal.
